According to patent US11541059B2, “Heterocyclic compounds and uses thereof” (Infinity Pharmaceuticals, Inc., priority 2014, dated 2023):

What was measured:
GL261-Luc tumors = experiment: GL261-Luc murine glioblastoma subcutaneous model; type: in vivo, mouse; settings: 15 mg/kg QD, PO, FIG. 47A
[1] = system: pAKT S473 in T cells and monocytes; experiment: Ex vivo whole blood CXCL12 stimulation of phospho-AKT, LLC-bearing mice; type: in vivo, mouse; settings: 12 days QD PO, 2 h post dose
Method: C57 BL/6 Albino mice were implanted with 1×10^6 cells in a SC injection in the hind flank. The cell implant material was generated from brei that was passaged from mouse to mouse. Treatment started when tumors were between 160-180 mm^3. Mice were dosed for 12 days, QD, PO with vehicle, 15, 7.5 or 3 mg/kg. On day 12 mice were dosed and terminal blood was collected 2 h post dose by cardiac stick collection. Blood was placed in EDTA K2 collection tube and stored at room temp for PD analysis.
Blood from each animal was aliquotted into 2 plates and warmed to 37° C. degrees. PBS was added to one plate as an unstimulated control. Murine CXCL12/SDF-1 was added to the second plate to a final concentration of 800 ng/mL and plate was returned to the 37° C. degree block. After 2 minutes of incubation, blood was lysed and fixed using paraformaldehyde. Samples were washed and frozen until flow cytometric analysis. T cells were gated using an antibody to CD3 and monocytes were gated as LY6G^− LY6C^high. Intracellular pAKT S473 was measured and percent positive was used for graphing.

Human hep viability = type: cell-based; settings: human hepatocytes
[2] = system: immune gene expression in KPC tumors; experiment: RNA expression profiling (TLDA) of KPC pancreatic tumors; type: in vivo, mouse; settings: 3 mg/kg, with or without PDL-1 antibody
Method: RNA expression profiling was performed for immuno-phenotyping with a Tagman low density array (TLDA).
For mouse tumors, snap frozen samples were powdered with a Genogrinder at liquid nitrogen temperatures and RNA was isolated with Trizol. Next, the sample was cleaned-up using Qiashredder, and then using a RNeasy kit.
CT values were used for analysis. For each sample Si and each gene, the following values were calculated: dCT(Si,gene)=CT(Si,gene)−CT(Si,ACTB) ddCT(Si,gene)=dCT(Si,gene)−median(dCT(vehicle treated samples,gene)) RQ(Si,gene)=2^(−ddCT(Si,gene))
This produced a matrix of RQ values: 48 genes (rows)×39 samples (cols).
The analysis used R package Non-negative Matrix Factorization (NMF) with rank=3 and the “lee” algorithm.

[3] = Pharmacokinetics of Compound BB, single and repeat oral dose; type: in vivo, mouse; settings: female CB6F1 mice, 2, 7.5, 15 mg/kg PO
Method: Animals were weighed daily prior to dosing. […] On subsequent dosing days, the animals' condition was noted prior to dosing; the animals were observed within 4 hours of dosing, and at the end of the day.
Samples were collected at pre-dose 0.25, 0.5, 1, 2, 4, 6 and 24 h following the first dose on day 1 and pre-dose (trough), 0.25, 0.5, 1, 2, 4, 6 and 24 h following the final dose on day 3. Animals received a single oral dose daily for 3 consecutive days. Blood was collected by retro-orbital bleeding for all time points on day 1. All other blood sampling was collected by a cardiac puncture. Blood was collected into K2EDTA tubes and placed on wet ice. Within 15 min of collection, the sample was centrifuged at 10,000 rpm at 4° C. for 10 min in a bench top centrifuge and the plasma transferred to a new microcentrifuge tube.

human T cells = experiment: Concanavalin A-induced model for activation of human T cells (IFN-γ); type: cell-based; settings: isoform selective concentrations
Cyps = experiment: Time dependent Cyp inhibition; type: in vitro ADME
GL-261 tumors = experiment: GL-261 glioma model with or without temozolomide; type: in vivo, mouse; settings: 15 mg/kg QD PO from the start of treatment, vs vehicle
Method: TMZ was dosed IP 1×/day for 7 days.
Animals: C57 Albino mice (male) from Jackson Labs, n=80. Parameters Evaluated:
In life: Mice were dosed QD with Compound BB. Temozolomide was dosed QD IP, for 7 days. Tumor measurements and bodyweights were taken 2×/week, but caliper and xenogen measurements.
End point analysis: Tumors were cut in half. One half was cut in half again with ½ fixed in 10% NBF the other was frozen in OCT for frozen sections. The remaining half was processed to single cell suspension and evaluated by FACS.
PD satellite group—8 mice from the TMZ treated mice and 8 mice from the vehicle treated mice were sacrificed on day 7 post treatment. Tumors were processed to single cell suspension and evaluated by FACS.

4T1 breast cancer = experiment: Subcutaneous 4T1 breast cancer model; type: in vivo; settings: co-administration with docetaxel, paclitaxel, or 5-FU
[4] = system: CD11b+ myeloid cells in 4T1 tumors; experiment: Immunohistochemistry of tumor immune infiltrates (CD11b, CD68), 4T1; type: in vivo, mouse; settings: vs vehicle, day 13
Method: Immunohistochemistry was performed to determine the distribution of immune cells within the tumor. In particular, CD11b myeloid cells were examined, as were regulatory vs. effector T cells (CD3, CD4, CD8, FoxP3). Briefly, IHC for CD11b or CD68+ was performed as follows. CD11b antibodies were available from Abcam, clone I-70, Catalog #ab 8878. CD68 antibodies were available from Abcam, clone FA-11, catalog #ab 53444. Tissues were fixed in cold methanol, air-dried, and then stained using a Res IHC Omni-UltraMap HRP XT protocol.
Without being bound by a particular theory, the decrease in the pro-tumorigenic tumor associated myeloid cells can result in activation of cytotoxic T-cells and anti-tumor immunity. […] When the images were quantified as CD11b+ cells per total viable cells (FIG. 37E), a Student t-Test p-value of 0.0355 was obtained when comparing the Compound BB-treated cells to controls. When the images were quantified as CD11b+ stained area per total visible area (FIG. 37F), a Student t-Test p-value of 0.0441 was obtained when comparing the Compound BB-treated cells to controls. […] When the images were quantified as CD11b+ cells per total viable cells (FIG. 37G), a Student t-Test p-value of 0.0864 (d16) or 0.3967 (d22) was obtained when comparing the Compound BB-treated cells to controls. […]

4T1 tumors = experiment: 4T1 breast cancer model; type: in vivo, mouse
Method: Plasma is collected for pharmokinetic (PK) analysis.
Briefly, in this study, treatment was initiated when tumors reached approximately 100 mm^3. […] 1. […] Vehicle+anti-PD-L1 (200 ug); 4.
Luciferin measurements were taken twice a week.

In the case of C[C@H](NC(=O)c1c(N)nn2cccnc12)c1cc2cccc(C#Cc3cnn(C)c3)c2c(=O)n1-c1ccccc1 [Compound BB], the “Tumor volume, GL-261 syngeneic glioma model” value (GL261-Luc tumors) is reported as “reduced tumor volume”, the “Ex vivo whole blood CXCL12 stimulation of phospho-AKT in T cells” value ([1]; FIG. 58) is reported as “inhibits the ex vivo whole blood stimulation of phosphor-AKT in T cells” and the “Ex vivo whole blood CXCL12 stimulation of phospho-AKT in monocytes” value ([1]; FIG. 59) is reported as “inhibits the ex vivo whole blood stimulation of phosphor-AKT in monocytes”. The IC50 (Human hep viability) was 10 to 25 µM, the “M2 macrophage markers VEGF and ARG-1 (RNA)” value [2] was “trended towards reduction” and the “Stability in serum (24-hour unbound plasma concentration time course)” value [3] was “good stability in serum”. For the same compound, the “effect on IFN-γ” value (human T cells) was “little to no effect”, the “Time dep Cyp Inhibition @ 10 uM” value (Cyps) was “Neg” and the “Tumor volume, GL-261 glioma model” value (GL-261 tumors) was “significant reduction in tumor volume”. For the same compound, the tumor growth (4T1 breast cancer) was “further reduction in tumor growth”, the “CD11b+ myeloid cell staining in viable regions of 4T1 tumors” value [4] was “decrease in CD11b+ myeloid cell staining” and the “Tumor growth, orthotopic 4T1 breast cancer model” value (4T1 tumors; 7.5 mg/kg PO QD 3 weeks, FIG. 33A) was “reduced tumor growth”. The “Tumor growth, subcutaneous 4T1 breast cancer model” value (4T1 tumors; 15 mg/kg PO QD 2 weeks, FIG. 36) was “demonstrated single agent activity” and the “Anti-tumor effect maintained after discontinuation of treatment” value (4T1 tumors; subcutaneous 4T1, FIG. 34) was “at least 6 days”.
